Measurements taken from article PMC11984877, “Carnosic Acid Directly Targets STING C‐Terminal Tail to Improve STING‐Mediated Inflammatory Diseases” (Advanced Science, 2025).

Tests used:
[1] = target: T1, STING (stimulator of interferon genes) (Homo sapiens, UniProt Q86WV6); test: SPR (Biacore T200); also MST (KD […]) and CA-sepharose pull-down competed by free CA; format: binding; design: gene STING1; purified soluble human STING protein (TP308418, OriGene)
[2] = target: T1, STING (stimulator of interferon genes); test: SPR (Biacore T200); also carnosol-sepharose pull-down; format: binding; design: gene STING1; purified human STING protein (TP308418, OriGene)

T1 sequence (Q86WV6 whole entry): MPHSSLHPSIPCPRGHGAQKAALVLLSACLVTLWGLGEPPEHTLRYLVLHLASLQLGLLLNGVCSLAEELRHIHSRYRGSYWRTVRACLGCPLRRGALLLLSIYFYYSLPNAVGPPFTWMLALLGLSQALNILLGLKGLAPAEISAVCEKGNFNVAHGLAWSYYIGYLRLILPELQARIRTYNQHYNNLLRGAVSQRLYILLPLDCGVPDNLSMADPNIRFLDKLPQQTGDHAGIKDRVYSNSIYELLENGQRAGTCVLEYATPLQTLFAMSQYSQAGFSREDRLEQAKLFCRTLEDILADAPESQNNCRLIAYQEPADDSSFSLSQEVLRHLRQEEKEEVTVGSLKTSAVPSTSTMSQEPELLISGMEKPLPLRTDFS

| Kd [2] [µM] | Structure (SMILES) | Kd [1] [µM] |
| --- | --- | --- |
|  | CC(C)c1cc2c(c(O)c1O)[C@@]1(C(=O)O)CCCC(C)(C)[C@@H]1CC2 [CA, carnosic acid] | 3.17 |
| 1.07 | CC(C)c1cc2c(c(O)c1O)[C@@]13CCCC(C)(C)[C@@H]1C[C@@H]2OC3=O [carnosol] |  |
